{"source": "patent US20230210116A1", "about": "“HONEYBEE REPELLENT” (EARTH CORPORATION, priority 2020, published 2023)", "note": "Where a name gives a salt, the structure may show the parent alone."}
{"test_system": "honeybees", "assay": "Test for Confirmation of Honeybee Repelling Effect 1, 2, 3 (feeding station with 40% sugar water)", "assay_type": "in vivo", "details": "Test 3, summary in text", "units": {"honeybee repelling rate": "%"}}
{"smiles": "Cc1cccc2ccccc12", "note": "[y-87, 1-methylnaphthalene]", "honeybee repelling rate": "≥ 50"}
{"test_system": "honeybees", "assay": "Test for Confirmation of Honeybee Repelling Effect 1, 2, 3 (feeding station with 40% sugar water)", "assay_type": "in vivo", "details": "Test 3; 0.1% by weight per volume solution, 5 mL", "units": {"Corrected repelling rate (%) Honeybees": "%"}}
{"smiles": "CC(C)=CCC/C(C)=C/COC=O", "note": "[y-28, geranyl formate]", "Corrected repelling rate (%) Honeybees": 98.0}
{"smiles": "COC(=O)c1ccccc1N", "note": "[y-33, methyl anthranilate]", "Corrected repelling rate (%) Honeybees": 51.0}
{"smiles": "CCCCCCCCCCCC(=O)OCCCC", "note": "[y-37, butyl laurate]", "Corrected repelling rate (%) Honeybees": 33.0}
{"smiles": "C=CCCCCCCCCC(=O)OCC", "note": "[y-39, ethyl 10-undecenoate]", "Corrected repelling rate (%) Honeybees": 75.8}
{"smiles": "CCCCCCCCCCCC(=O)OCC", "note": "[y-41, ethyl laurate]", "Corrected repelling rate (%) Honeybees": 59.6}
{"smiles": "CCOC(=O)CC(C)(C)C", "note": "[y-42, ethyl tert-butylacetate]", "Corrected repelling rate (%) Honeybees": 27.7}
{"smiles": "C=CCOC(=O)CCC1CCCCC1", "note": "[y-43, allyl cyclohexanepropionate]", "Corrected repelling rate (%) Honeybees": 90.4}
{"smiles": "C=CCOC(=O)Cc1ccccc1", "note": "[y-44, allyl phenylacetate]", "Corrected repelling rate (%) Honeybees": 73.6}
{"smiles": "CCCCOC(C)=O", "note": "[y-46, butyl acetate]", "Corrected repelling rate (%) Honeybees": 40.2}
{"smiles": "C=CCOC(=O)CCCCC", "note": "[y-49, allyl hexanoate]", "Corrected repelling rate (%) Honeybees": 33.5}
{"smiles": "CCCCCCC(=O)OCC", "note": "[y-54, ethyl heptanoate]", "Corrected repelling rate (%) Honeybees": 20.9}
{"smiles": "c1cnccn1", "note": "[y-57, pyrazine]", "Corrected repelling rate (%) Honeybees": 51.3}
{"smiles": "CCCCCCCC1CCCC(=O)O1", "note": "(stereo not shown) [y-65, δ-dodecalactone]", "Corrected repelling rate (%) Honeybees": 86.6}
{"smiles": "CCCCCC1CCCCC(=O)O1", "note": "(stereo not shown) [y-66, 6-undecanolactone]", "Corrected repelling rate (%) Honeybees": 69.3}
{"smiles": "CCCC(=O)O", "note": "[y-73, butyric acid]", "Corrected repelling rate (%) Honeybees": 33.0}
{"smiles": "COc1ccc(C(=O)O)cc1OC", "note": "[y-75, 3,4-dimethoxybenzoic acid]", "Corrected repelling rate (%) Honeybees": 70.6}
{"smiles": "COc1cc(OC)cc(C(=O)O)c1", "note": "[y-76, 3,5-dimethoxybenzoic acid]", "Corrected repelling rate (%) Honeybees": 22.1}
{"smiles": "c1ccc2cnccc2c1", "note": "[y-79, isoquinoline]", "Corrected repelling rate (%) Honeybees": 92.3}
{"smiles": "c1ccc2ncccc2c1", "note": "[y-81, quinoline]", "Corrected repelling rate (%) Honeybees": 80.2}
{"smiles": "c1ccc(-c2nc3ccccc3nc2-c2ccccc2)cc1", "note": "[y-84, 2,3-diphenylquinoxaline]", "Corrected repelling rate (%) Honeybees": 75.8}
{"smiles": "Oc1cccc2nccnc12", "note": "[y-85, 5-hydroxyquinoxaline]", "Corrected repelling rate (%) Honeybees": 71.5}
{"smiles": "Cc1cccc2ccccc12", "note": "[y-87, 1-methylnaphthalene]", "Corrected repelling rate (%) Honeybees": 74.3}
{"smiles": "C1CCNC1", "note": "[y-91, pyrrolidine]", "Corrected repelling rate (%) Honeybees": 61.2}
{"smiles": "CCc1occc(=O)c1O", "note": "[y-95, ethyl maltol]", "Corrected repelling rate (%) Honeybees": 27.6}
{"smiles": "CCC(=O)Oc1c(C)occc1=O", "note": "[y-96, maltol propionate]", "Corrected repelling rate (%) Honeybees": 57.5}
{"test_system": "honeybees", "assay": "Test for Confirmation of Honeybee Repelling Effect 1, 2, 3 (feeding station with 40% sugar water)", "assay_type": "in vivo", "details": "Test 3; 2.0% by weight per volume solution, 5 mL", "units": {"Corrected repelling rate (%) Honeybees": "%"}}
{"smiles": "CCCC(=O)OCCC(C)C", "note": "[y-51, isoamyl butyrate]", "Corrected repelling rate (%) Honeybees": 75.9}
{"test_system": "stink bugs", "assay": "Test for Confirmation of Stink Bug Behaviors against Active Ingredients 1, 2, 3 (treated filter paper)", "assay_type": "in vivo, southern green stink bugs", "details": "not given", "description": "(§1) The test samples in “Test for Confirmation of Honeybee Repelling Effect 1” above were used.\n(§2) A liquid calcium carbonate/ethanol dispersion was applied on the entire interior wall of a KP cup (100 mm in diameter×90 mm in height) and air-dried, after which a filter paper (90 mm in diameter) was fixed on the bottom face of the KP cup using double-sided tape. A different filter paper (90 mm in diameter) was cut along its diameter and the resulting semicircle-shaped paper was uniformly treated with 400 μL of each test sample or sample for correction, and then placed over the filter paper fixed on the aforementioned bottom face of the KP cup by allowing the circular parts to overlap, for use as a testing device.\n(§3) The “repelling rate Y” and “corrected repelling rate Z” were calculated from the above “time A (sec)” and “time B (sec)” using the calculation formula below. For the “repelling rate of sample for correction” used to calculate the “corrected repelling rate Z,” the repelling rate of each of the samples for correction above (ethanol alone or water alone being a solvent for the active ingredient) was used.\n(§4) Corrected repelling rate Z (%)={Repelling rate of test sample−Repelling rate of sample for correction}/{100−Repelling rate of sample for correction}×100\n(§5) For the test samples, the test samples in “Test for Confirmation of Honeybee Repelling Effect 2” above were used."}
{"smiles": "CC(C)=CCC/C(C)=C/COC=O", "note": "[y-28, geranyl formate]", "repelling of stink bugs and other injurious insects to be exterminated (in words)": "not repelling stink bugs"}
{"smiles": "COC(=O)c1ccccc1N", "note": "[y-33, methyl anthranilate]", "repelling of stink bugs and other injurious insects to be exterminated (in words)": "not repelling stink bugs"}
{"smiles": "C=CCCCCCCCCC(=O)OCC", "note": "[y-39, ethyl 10-undecenoate]", "repelling of stink bugs and other injurious insects to be exterminated (in words)": "not repelling stink bugs"}
{"smiles": "CCCCCCCCCCCC(=O)OCC", "note": "[y-41, ethyl laurate]", "repelling of stink bugs and other injurious insects to be exterminated (in words)": "not repelling stink bugs"}
{"smiles": "C=CCOC(=O)CCC1CCCCC1", "note": "[y-43, allyl cyclohexanepropionate]", "repelling of stink bugs and other injurious insects to be exterminated (in words)": "not repelling stink bugs"}
{"smiles": "C=CCOC(=O)Cc1ccccc1", "note": "[y-44, allyl phenylacetate]", "repelling of stink bugs and other injurious insects to be exterminated (in words)": "not repelling stink bugs"}
{"smiles": "CCCC(=O)OCCC(C)C", "note": "[y-51, isoamyl butyrate]", "repelling of stink bugs and other injurious insects to be exterminated (in words)": "not repelling stink bugs"}
{"smiles": "c1cnccn1", "note": "[y-57, pyrazine]", "repelling of stink bugs and other injurious insects to be exterminated (in words)": "not repelling stink bugs"}
{"smiles": "CCCCCCCC1CCCC(=O)O1", "note": "(stereo not shown) [y-65, δ-dodecalactone]", "repelling of stink bugs and other injurious insects to be exterminated (in words)": "not repelling stink bugs"}
{"smiles": "CCCCCC1CCCCC(=O)O1", "note": "(stereo not shown) [y-66, 6-undecanolactone]", "repelling of stink bugs and other injurious insects to be exterminated (in words)": "not repelling stink bugs"}
{"smiles": "COc1ccc(C(=O)O)cc1OC", "note": "[y-75, 3,4-dimethoxybenzoic acid]", "repelling of stink bugs and other injurious insects to be exterminated (in words)": "not repelling stink bugs"}
{"smiles": "c1ccc2cnccc2c1", "note": "[y-79, isoquinoline]", "repelling of stink bugs and other injurious insects to be exterminated (in words)": "not repelling stink bugs"}
{"smiles": "c1ccc2ncccc2c1", "note": "[y-81, quinoline]", "repelling of stink bugs and other injurious insects to be exterminated (in words)": "not repelling stink bugs"}
{"smiles": "c1ccc(-c2nc3ccccc3nc2-c2ccccc2)cc1", "note": "[y-84, 2,3-diphenylquinoxaline]", "repelling of stink bugs and other injurious insects to be exterminated (in words)": "not repelling stink bugs"}
{"smiles": "Oc1cccc2nccnc12", "note": "[y-85, 5-hydroxyquinoxaline]", "repelling of stink bugs and other injurious insects to be exterminated (in words)": "not repelling stink bugs"}
{"smiles": "Cc1cccc2ccccc12", "note": "[y-87, 1-methylnaphthalene]", "repelling of stink bugs and other injurious insects to be exterminated (in words)": "not repelling stink bugs"}
{"smiles": "CCC(=O)Oc1c(C)occc1=O", "note": "[y-96, maltol propionate]", "repelling of stink bugs and other injurious insects to be exterminated (in words)": "not repelling stink bugs"}
{"test_system": "stink bugs", "assay": "Test for Confirmation of Stink Bug Behaviors against Active Ingredients 1, 2, 3 (treated filter paper)", "assay_type": "in vivo, southern green stink bugs", "details": "0.5 h, 0.1 % strength", "description": "as §1, §2, §3, §4, §5"}
{"smiles": "CCCCOC(C)=O", "note": "[y-46, butyl acetate]", "Corrected repelling rate (%) Stinkbugs": "x (“x” for rates “not <0”)"}
{"smiles": "C1CCNC1", "note": "[y-91, pyrrolidine]", "Corrected repelling rate (%) Stinkbugs": "x (“x” for rates “not <0”)"}
{"test_system": "stink bugs", "assay": "Test for Confirmation of Stink Bug Behaviors against Active Ingredients 1, 2, 3 (treated filter paper)", "assay_type": "in vivo, southern green stink bugs", "details": "Test 3; 0.1% by weight per volume solution, 400 μL", "description": "as §1, §2, §3, §4, §5"}
{"smiles": "CC(C)=CCC/C(C)=C/COC=O", "note": "[y-28, geranyl formate]", "Corrected repelling rate (%) Stinkbugs": "∘"}
{"smiles": "COC(=O)c1ccccc1N", "note": "[y-33, methyl anthranilate]", "Corrected repelling rate (%) Stinkbugs": "∘"}
{"smiles": "CCCCCCCCCCCC(=O)OCCCC", "note": "[y-37, butyl laurate]", "Corrected repelling rate (%) Stinkbugs": "∘"}
{"smiles": "C=CCCCCCCCCC(=O)OCC", "note": "[y-39, ethyl 10-undecenoate]", "Corrected repelling rate (%) Stinkbugs": "∘"}
{"smiles": "CCCCCCCCCCCC(=O)OCC", "note": "[y-41, ethyl laurate]", "Corrected repelling rate (%) Stinkbugs": "∘"}
{"smiles": "CCOC(=O)CC(C)(C)C", "note": "[y-42, ethyl tert-butylacetate]", "Corrected repelling rate (%) Stinkbugs": "∘"}
{"smiles": "C=CCOC(=O)CCC1CCCCC1", "note": "[y-43, allyl cyclohexanepropionate]", "Corrected repelling rate (%) Stinkbugs": "∘"}
{"smiles": "C=CCOC(=O)Cc1ccccc1", "note": "[y-44, allyl phenylacetate]", "Corrected repelling rate (%) Stinkbugs": "∘"}
{"smiles": "C=CCOC(=O)CCCCC", "note": "[y-49, allyl hexanoate]", "Corrected repelling rate (%) Stinkbugs": "∘"}
{"smiles": "CCCCCCC(=O)OCC", "note": "[y-54, ethyl heptanoate]", "Corrected repelling rate (%) Stinkbugs": "∘"}
{"smiles": "c1cnccn1", "note": "[y-57, pyrazine]", "Corrected repelling rate (%) Stinkbugs": "∘"}
{"smiles": "CCCCCCCC1CCCC(=O)O1", "note": "(stereo not shown) [y-65, δ-dodecalactone]", "Corrected repelling rate (%) Stinkbugs": "∘"}
{"smiles": "CCCCCC1CCCCC(=O)O1", "note": "(stereo not shown) [y-66, 6-undecanolactone]", "Corrected repelling rate (%) Stinkbugs": "∘"}
{"smiles": "CCCC(=O)O", "note": "[y-73, butyric acid]", "Corrected repelling rate (%) Stinkbugs": "∘"}
{"smiles": "COc1ccc(C(=O)O)cc1OC", "note": "[y-75, 3,4-dimethoxybenzoic acid]", "Corrected repelling rate (%) Stinkbugs": "∘"}
{"smiles": "COc1cc(OC)cc(C(=O)O)c1", "note": "[y-76, 3,5-dimethoxybenzoic acid]", "Corrected repelling rate (%) Stinkbugs": "∘"}
{"smiles": "c1ccc2cnccc2c1", "note": "[y-79, isoquinoline]", "Corrected repelling rate (%) Stinkbugs": "∘"}
{"smiles": "c1ccc2ncccc2c1", "note": "[y-81, quinoline]", "Corrected repelling rate (%) Stinkbugs": "∘"}
{"smiles": "c1ccc(-c2nc3ccccc3nc2-c2ccccc2)cc1", "note": "[y-84, 2,3-diphenylquinoxaline]", "Corrected repelling rate (%) Stinkbugs": "∘"}
{"smiles": "Oc1cccc2nccnc12", "note": "[y-85, 5-hydroxyquinoxaline]", "Corrected repelling rate (%) Stinkbugs": "∘"}
{"smiles": "Cc1cccc2ccccc12", "note": "[y-87, 1-methylnaphthalene]", "Corrected repelling rate (%) Stinkbugs": "∘"}
{"smiles": "CCc1occc(=O)c1O", "note": "[y-95, ethyl maltol]", "Corrected repelling rate (%) Stinkbugs": "∘"}
{"smiles": "CCC(=O)Oc1c(C)occc1=O", "note": "[y-96, maltol propionate]", "Corrected repelling rate (%) Stinkbugs": "∘"}
{"test_system": "stink bugs", "assay": "Test for Confirmation of Stink Bug Behaviors against Active Ingredients 1, 2, 3 (treated filter paper)", "assay_type": "in vivo, southern green stink bugs", "details": "Test 3; 2.0% by weight per volume solution, 400 μL", "description": "as §1, §2, §3, §4, §5"}
{"smiles": "CCCC(=O)OCCC(C)C", "note": "[y-51, isoamyl butyrate]", "Corrected repelling rate (%) Stinkbugs": "∘"}
